The values that follow come from patent publication US8309356B2, “Pseudocomplementary oligonucleotides for targeted gene therapy” (Yale University, priority 2009, dated 2012).

In data set [1] the test system is supF reporter gene. Description: Induced recombination / gene correction of supF reporter gene in SV40-based shuttle vector transfected into COS cells, scored in indicator bacteria. The class given is cell-based, monkey. Conditions: plasmid co-mixed with binding molecule and supF1-donor DNA, two days. The text has this:
In this assay, each targeting oligomer was designed, including the pair of pcPNAs, the TFO (AG30) and the bis-PNA (bis-PNA5), to bind to a selected site in the supF reporter gene contained in an SV40-based shuttle vector. In this vector construct, the supF gene has an inactivating single base pair mutation which can be corrected by recombination with a short single stranded oligonucleotide donor. The pcPNAs were designed to bind to a mixed sequence site 62 by away from the mutation, whereas the TFO and the bis-PNA were targeted to a G:C by rich polypurine site 24 by away from the mutation. The plasmid vector DNA was co-mixed with selected molecules, and the samples were transfected into monkey COS cells. Two days were allowed for repair/recombination/replication, and the episomal vector DNA was harvested for genetic analysis of the supF gene in indicator bacteria, as previously described (by Chan, et al., J. Biol. Chem., 274:11541-11548 (1999)). As expected, and consistent with other published work, the TFO (AG30) and the bis-PNAS induced gene correction in the supF gene at frequencies of 0.14% and 0.21%, respectively (FIG. 4). […] A pair of control pcPNAs (pcPNA3 and pcPNA4) with 5 mismatches each to the supF target site were ineffective, showing the sequence specificity of the process.
(In a reporter assay the amount or activity of a reporter protein is the signal.)

Data set [2] deals with chromosomal GFP/IVS2-1^G→A gene. Description: Gene correction of chromosomal GFP/IVS2-1G→A fusion gene in CHO reporter cells, GFP-positive cells quantified by FACS. The class given is cell-based. Conditions: with β-globin/GFP donor DNA (or donor alone). As to the method:
The HinDIII-NotI fragments of these plasmids, containing the GFP sequence interrupted by IVS2-1 or IVS2 wt construct, were subcloned into the multiple cloning site of pcDNA5/FRT (Invitrogen, Carlsbad, Calif.), and the resulting vectors were stably transfected into CHO-Flp host cell lines using the Flp-In System according to manufacturer's instructions (Invitrogen, Carlsbad Calif.). […] The resulting CHO-GFP/IVS2-1^G→A cells and control CHO-GFP/IVS2-1^WT cells were grown in Ham's F12 media supplemented with 10% FBS and 2 mM L-glutamine.
1×10^6 cells in 100 μl of media were mixed with selected pcPNAs (6 μM) and GFP-DNA (12 μM) oligonucleotides and electroporated in 0.4 cm cuvettes using a Bio-Rad Gene Pulser (280V, […], Hercules, Calif.). Cells were replated in 60 mm dishes following electroporation and allowed to expand to approximately 90% confluency (2-3 days). […] Two days later as indicated, cells were then visualized via fluorescence microscopy or analyzed by FACS.
Cells were visualized using a Zeiss Axiovert 200 (Thornwood, N.Y.) fluorescent microscope at 100× and 200× magnification. […] Cells were analyzed using a Becton Dickinson FACS-Calibur flow cytometer (Franklin Lakes, N.J.). […] Collected data were then analyzed using the FlowJo software (Tree Star Inc., Ashland, Oreg.). […]

As for “AGGAAGGGGGGGGTGGTGGGGGAGGGGGAG (chemistry not given here) [AG30]”, the “Frequency of gene correction in the supF gene (recombination frequency)” value in data set [1] turned out to be 0.14%.
As to “GTTCAGCGTGTCCGGCGAGGGCGAGGTGAGTCTATGGGACCCTTGATGTTT (listed as DNA, chemistry not given here) [GFP-donor DNA]”, the “Frequency of gene correction” value in data set [2] (S-phase synchronized cells, SAHA, single treatment) amounted to 0.29%; in data set [2] (asynchronous CHO-GFP/IVS2-1G→A cells, single electroporation, no additive), 0.005%.
Turning to “JJJJJTTJJT-O-O-O-TCCTTCCCCC-(Lys)3 (JJJJJTTJJT-O-O-O-TCCTTCCCCC-(Lys)_{3}; as printed in the source, key not given here) [Bis-PNA5]”, the “Frequency of gene correction in the supF gene (recombination frequency)” value in data set [1] turned out to be 0.21%.
